This note sets out measurements from paper PMC5706701, “Development of a homogenous high-throughput assay for inositol hexakisphosphate kinase 1 activity” (PLoS ONE, 2017).

Counter-ions that a name gives are not always drawn. Like-named read-outs stand apart in the source and are kept apart here. Where a SMILES comes first, the peptide text is derived from it. The star is where a group is joined. Cbz = O=C(OCc1ccccc1)*

The experiment concerns the target T1, Human IP6K1 (Homo sapiens, UniProt Q92551).
T1 construct: GST (N, cleaved yes); made in house; host or cells: C43 E. coli, pGEX-6P-2
Put plainly: IP6K1 high-throughput screen of the Sigma LOPAC (ADP-Glo Max, single point).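 Further: final compound concentration 10µM in 5% DMSO.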 Type of experiment: biochemical.

[1] abbreviates: LOPAC single-point screen, ADP-Glo Max raw signal per well.
[2] abbreviates: LOPAC single-point screen, Z-score from raw signal with plate average and StDev.
The mark [3] stands for this setting: LOPAC single-point screen, Z-score against plate average and StDev.
The mark [4] stands for this setting: Sigma LOPAC single-point screen, ADP-Glo Max raw signal per well.
The mark [5] stands for this setting: Sigma LOPAC single-point screen, Z-score from plate average and StDev.
Where [6] appears, read: LOPAC single-point screen, ADP-Glo Max luminescence raw signal per well.
The mark [7] stands for this setting: LOPAC single-point screen, Z-score from plate average and StDev.
The mark [8] stands for this setting: LOPAC single-point screen, Z-score relative to plate average and StDev.

T1 sequence (Q92551 whole entry): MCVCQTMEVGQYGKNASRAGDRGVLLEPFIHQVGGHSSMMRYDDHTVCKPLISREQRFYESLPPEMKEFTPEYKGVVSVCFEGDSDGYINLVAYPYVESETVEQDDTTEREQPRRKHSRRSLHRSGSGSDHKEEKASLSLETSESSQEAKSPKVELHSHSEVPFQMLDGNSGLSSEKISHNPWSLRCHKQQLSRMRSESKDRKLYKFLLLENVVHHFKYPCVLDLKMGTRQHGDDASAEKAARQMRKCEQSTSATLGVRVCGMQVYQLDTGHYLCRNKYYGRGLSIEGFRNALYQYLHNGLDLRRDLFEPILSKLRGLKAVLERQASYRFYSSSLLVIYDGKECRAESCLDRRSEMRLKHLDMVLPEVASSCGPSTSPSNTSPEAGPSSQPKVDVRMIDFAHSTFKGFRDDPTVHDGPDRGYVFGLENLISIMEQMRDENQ

On to `N[C@H]1CON=C1O` [L-Cycloserine], for which, under setting [1], the “Raw Signal” value was found to be 56773. Also, the Z-score under setting [2] is -0.2008. Take `N[C@@H](CS(=O)O)C(=O)O` [L-Cysteinesulfinic Acid]: the “Raw Signal” value under setting [1] turned out to be 57943. Also, the Z-score under setting [3] worked out at 0.005266. The corresponding values for `Cl.N[C@@H](CCC(=O)O)C(=O)O` [L-Glutamic acid hydrochloride] are 55889 and 0.1466. For `O=C(O)CCC(C(=O)O)N1C(=O)c2ccccc2C1=O` [L-Glutamic acid, N-phthaloyl-], under setting [4], the “Raw Signal” value worked out at 59775. For the same compound, under setting [5], the Z-score was 0.9042. `NC(=O)CC[C@H](N)C(=O)O` [L-Glutamine]: the “Raw Signal” value under setting [4] came out at 57892. The compound further showed a Z-score under setting [5] of 0.5534. Regarding `Cl.N[C@@H](Cc1cnc[nH]1)C(=O)O` [L-Histidine hydrochloride], the “Raw Signal” value under setting [4] is 61451. Moreover, the Z-score under setting [5] came out at 1.276. `CN1[C@@H]2CC[C@H]1C[C@@H](OC(=O)[C@H](CO)c1ccccc1)C2` [L-Hyoscyamine]: under setting [6], the “Raw Signal” value amounted to 63094. Under setting [7], this compound returned a Z-score of 1.61. In the case of `CC(C)C[C@H](N)CSSC[C@@H](N)CC(C)C.Cl.Cl` [L-Leucinethiol, oxidized dihydrochloride], the “Raw Signal” value under setting [1] is listed as 55535. In addition, the Z-score under setting [3] is listed as 0.1918. As to `CC(=N)NCCCC[C@H](N)C(=O)O.Cl` [L-N6-(1-Iminoethyl)lysine hydrochloride], the “Raw Signal” value under setting [1] was determined as 52153. For the same compound, the Z-score under setting [2] is on record as -0.3765. For the compound `N[C@@H](Cc1c[nH]c2ccccc12)C(=O)O` [L-Tryptophan], under setting [4], the “Raw Signal” value worked out at 60593. Further, under setting [5], the Z-score is recorded as 0.8877. As for `C=CC[C@H](N)C(=O)O` [L-allylglycine], under setting [1], the “Raw Signal” value was 58984. Moreover, under setting [3], the Z-score is on record as 0.1886.

In the case of `C[C@](N)(Cc1ccc(O)c(O)c1)C(=O)O` [L-alpha-Methyl DOPA], the “Raw Signal” value under setting [6] is listed as 24071. Further, the Z-score under setting [8] is -5.095. Regarding `C[C@](N)(Cc1ccc(O)cc1)C(=O)O` [L-alpha-Methyl-p-tyrosine], under setting [1], the “Raw Signal” value is recorded as 53929. Also, under setting [3], the Z-score is -0.07805.

On to `O=C(O)[C@@H]1CCN1` [L-azetidine-2-carboxylic acid], for which, under setting [6], the “Raw Signal” value is on record as 54831. Further, under setting [8], the Z-score is -0.5428. As for `CN1CCc2ccccc2Cc2[nH]c3ccccc3c2CC1` [LE 300], the “Raw Signal” value is listed as 53844 and the Z-score is reported as -0.09233. Regarding `C/C(O)=C(\C#N)C(=O)Nc1cc(Br)ccc1Br` [LFM-A13], under setting [4], the “Raw Signal” value was 58610. The same compound displayed a Z-score under setting [5] of 0.7085. The corresponding values for `CC(O)C(C)OC(=O)[C@@H]1C[C@@H]2c3cccc4c3c(cn4C(C)C)C[C@H]2N(C)C1.O=C(O)/C=C\C(=O)O` (some centres unmarked) [LY-53,857 maleate] are 58270 and 0.6514. As to `CN1C2CCC1CC(NC(=O)c1nn(C)c3ccccc13)C2.O=C(O)/C=C\C(=O)O` (centres unmarked) [LY-278,584 maleate], the “Raw Signal” value under setting [6] is given as 49124. Under setting [8], the Z-score is -0.8854. On the same counts, the results for `Cl.O=c1cc(N2CCOCC2)oc2c(-c3ccccc3)cccc12` [LY-294,002 hydrochloride] are 50825 and -0.5996.

For `CC(CCc1ccccc1)NCC(O)c1ccc(O)c(C(N)=O)c1` (centres unmarked) [Labetalol hydrochloride], the “Raw Signal” value under setting [1] came to 53329. For the same compound, under setting [2], the Z-score is -0.1789. Take `Nc1nnc(-c2cccc(Cl)c2Cl)c(N)n1` [Lamotrigine]: under setting [1], the “Raw Signal” value is reported as 53800. Further, the Z-score under setting [2] is -0.09973. Turning to `Cc1c(OCC(F)(F)F)ccnc1C[S+]([O-])c1nc2ccccc2[nH]1` (centres unmarked) [Lansoprazole], under setting [1], the “Raw Signal” value was 53701. Further, the Z-score under setting [2] is on record as -0.1164. For the compound `Cc1oncc1C(=O)Nc1ccc(C(F)(F)F)cc1` [Leflunomide], the “Raw Signal” value under setting [6] was found to be 65933. Under setting [7], this compound yielded a Z-score of 1.939. In the case of `C=CCN1CC[C@]23CCCC[C@H]2[C@H]1Cc1ccc(O)cc13` [Levallorphan tartrate], the “Raw Signal” value under setting [1] was determined as 52542. The Z-score under setting [2] is -0.3111. With `CC[N+](C)(CC)CC(=O)Nc1c(C)cccc1C.[Cl-]` [Lidocaine N-methyl hydrochloride], the “Raw Signal” value under setting [6] was found to be 51540. For the same compound, the Z-score under setting [8] was -0.4795.

With `O=C1N(c2ccccc2)c2ccccc2C1(Cc1ccncc1)Cc1ccncc1` [Linopirdine], under setting [1], the “Raw Signal” value came out at 55241. Also, under setting [3], the Z-score is reported as 0.1424. For the compound `[Cl-].[Li+]` [Lithium Chloride], the “Raw Signal” value under setting [4] was determined as 59222. The Z-score under setting [5] is 0.8235. Regarding `CCn1cc(C(=O)O)c(=O)c2cc(F)c(N3CCNC(C)C3)c(F)c21` (centres unmarked) [Lomefloxacin hydrochloride], the “Raw Signal” value under setting [6] is recorded as 49930. In addition, under setting [8], the Z-score is given as -0.75.

Turning to `O=C(O)c1nn(Cc2ccc(Cl)cc2Cl)c2ccccc12` [Lonidamine], the “Raw Signal” value under setting [1] stood at 56276. This compound came in with a Z-score under setting [3] of 0.3163. Consider `CN(C)C(=O)C(CCN1CCC(O)(c2ccc(Cl)cc2)CC1)(c1ccccc1)c1ccccc1` [Loperamide hydrochloride], for which the “Raw Signal” value under setting [6] came out at 51056. In addition, the Z-score under setting [8] is -0.5608. In the case of `CCOC(=O)N1CCC(=C2c3ccc(Cl)cc3CCc3cccnc32)CC1` [Loratadine], the “Raw Signal” value under setting [6] is 49648. Besides, the Z-score under setting [8] is reported as -0.7974. On to `CCCCCN(CCCCC)C(=O)C(CCC(=O)O)NC(=O)c1ccc(Cl)c(Cl)c1` (centres unmarked) [Lorglumide sodium], for which, under setting [3], the Z-score is given as 0.04041. For the compound `CN1CCN(C2=Nc3ccccc3Oc3ccc(Cl)cc32)CC1` [Loxapine succinate], the “Raw Signal” value under setting [1] is 54983. Further, the Z-score under setting [3] turned out to be 0.09905. As for `O=c1cc(-c2ccc(O)c(O)c2)oc2cc(O)cc(O)c12` [Luteolin], the “Raw Signal” value under setting [6] is on record as 50800. For the same compound, the Z-score under setting [8] is listed as -0.6038. In turn, `O=C(O)/C(=C/c1c(C(=O)O)[nH]c2cc(Cl)cc(Cl)c12)c1ccccc1` [MDL 105,519] displayed a Z-score of 0.03839. For `CC(C)[C@H](NC(=O)OCc1ccccc1)C(=O)N[C@H](C=O)Cc1ccccc1` [MDL 28170] (Cbz-Val-Phe-aldehyde), the “Raw Signal” value under setting [6] was determined as 65838. Also, under setting [7], the Z-score was 1.923.

On to `CC[N+](CC)(CC)CCOc1ccc(/C=C/c2ccccc2)cc1` [MG 624], for which the “Raw Signal” value under setting [4] was found to be 57360. Further, the Z-score under setting [5] is recorded as 0.4984. As to `C1CNCCN1.COc1cc(C(O)CO)ccc1O.COc1cc(C(O)CO)ccc1O` (centres unmarked) [MHPG piperazine], under setting [4], the “Raw Signal” value was 58694. The same compound had a Z-score under setting [5] of 0.7163. Regarding `COc1cc(C(O)CO)ccc1OS(=O)(=O)[O-].[K+]` (centres unmarked) [MHPG sulfate potassium], under setting [1], the “Raw Signal” value is recorded as 56093. This compound also showed a Z-score under setting [3] of 0.1881. Take `CCCCCCCCCCCCCCCCOCC(COCC(F)(F)F)OP(=O)(O)OC` (centres unmarked) [MJ33]: the “Raw Signal” value under setting [4] is reported as 57341. The compound also gave a Z-score under setting [5] of 0.4953. In the case of `CC(C)c1ccc2c(c1)c(SC(C)(C)C)c(CC(C)(C)C(=O)O)n2Cc1ccc(Cl)cc1` [MK-886], the “Raw Signal” value under setting [1] is given as 53257. The Z-score under setting [2] is reported as -0.191. Consider `CN1CC[C@]2(CCN3CCc4c(oc5ccccc45)[C@@H]3C2)N(C)C1=O.Cl` [MK-912], for which the “Raw Signal” value under setting [6] stood at 51307. The Z-score under setting [8] is recorded as -0.5186. For the compound `O=S(=O)(c1cccc2c(I)cccc12)N1CCCNCC1` [ML-7], under setting [6], the “Raw Signal” value is 65221. Further, the Z-score under setting [7] is listed as 1.8193. With `O=S(=O)(c1cccc2c(Cl)cccc12)N1CCCNCC1` [ML-9], under setting [1], the “Raw Signal” value is 57828. The Z-score under setting [3] was -0.01499. Turning to `CCCOC(=O)c1c(-c2ccccc2)nc(CC)c(C(=O)SCC)c1CCC` [MRS 1523], the “Raw Signal” value under setting [1] came out at 53053. Under setting [2], the Z-score was -0.2252. Regarding `CCCn1c(=O)c2[nH]c(-c3ccc(OCC(=O)Nc4ccc(C#N)cc4)cc3)nc2n(CCC)c1=O` [MRS 1754], the “Raw Signal” value under setting [6] was 66198. Besides, the Z-score under setting [7] turned out to be 1.983. `C#CCN1C(C)=C(C(=O)OC)C(c2cccc([N+](=O)[O-])c2)C(C(=O)OCC)=C1C` (centres unmarked) [MRS 1845]: the “Raw Signal” value under setting [1] stood at 54765. For the same compound, the Z-score under setting [3] is on record as 0.06242. As for `Cc1nc(N=Nc2ccc(C(=O)O)cc2)c(COP(=O)(O)O)c(C=O)c1O` [MRS 2159], under setting [6], the “Raw Signal” value is on record as 51283. The Z-score under setting [8] is reported as -0.5226.

As to `CNc1ncnc2c1ncn2[C@H]1C[C@H](OP(=O)(O)O)[C@@H](COP(=O)(O)O)O1` [MRS 2179], the “Raw Signal” value under setting [6] is listed as 51414. For the same compound, the Z-score under setting [8] is recorded as -0.5006. Take `CNCCCC12CCC(c3ccccc31)c1ccccc12` [Maprotiline hydrochloride]: under setting [1], the “Raw Signal” value amounted to 54786. Under setting [3], this compound displayed a Z-score of 0.06595. With `C[N+](C)(C)CC#CCOC(=O)Nc1cccc(Cl)c1.[Cl-]` [McN-A-343], the “Raw Signal” value under setting [1] is listed as 55957. Besides, the Z-score under setting [2] is -0.3445. Take `CN(N=O)c1ccc(O)c(O)c1` [Me-3,4-dephostatin]: the “Raw Signal” value under setting [6] was 32245. Also, under setting [8], the Z-score was -3.722. As to `CNC1(C)C2CCC(C2)C1(C)C` (centres unmarked) [Mecamylamine hydrochloride], the “Raw Signal” value under setting [1] amounted to 55214. Further, the Z-score under setting [3] is 0.1379.

As to `Cc1ccc(Cl)c(Nc2ccccc2C(=O)O)c1Cl` [Meclofenamic acid sodium], the “Raw Signal” value under setting [4] is 59966. In addition, under setting [5], the Z-score was found to be 0.9363. As for `COc1ccc2[nH]cc(CCNC(C)=O)c2c1` [Melatonin], the “Raw Signal” value under setting [1] is 53452. Moreover, the Z-score under setting [2] was -0.1582. Consider `Cc1cnc(NC(=O)C2=C(O)c3ccccc3S(=O)(=O)N2C)s1` [Meloxicam sodium], for which the “Raw Signal” value under setting [1] is 55155. This compound also registered a Z-score under setting [3] of 0.128.
